Measurements taken from patent US20250221435A1, “Food Protein-Derived Peptides as Bitter Taste Blockers” (University of Manitoba, priority 2018, published 2025).
Several values for one entry are separate records, joined by “and”; a condition that tells them apart may be missing. Equal values may be shown once. Entries after “also recorded” stand apart in the source; their conditions may differ. Read-outs that look alike come from different tables or passages of the source.

How the values were obtained:
[1] = molecular target: T1, T2R4 (Homo sapiens, UniProt Q9NYW5); assay: Calcium mobilization in T2R4-expressing HEK 293T cell system; assay type: cell-based; settings: for blocking of quinine-dependent calcium release: 1 mM quinine plus 5 mg/mL fraction or 1 mM synthesized peptide
T1 construct: expressed in transfected cells
T1 sequence (Q9NYW5 1-299): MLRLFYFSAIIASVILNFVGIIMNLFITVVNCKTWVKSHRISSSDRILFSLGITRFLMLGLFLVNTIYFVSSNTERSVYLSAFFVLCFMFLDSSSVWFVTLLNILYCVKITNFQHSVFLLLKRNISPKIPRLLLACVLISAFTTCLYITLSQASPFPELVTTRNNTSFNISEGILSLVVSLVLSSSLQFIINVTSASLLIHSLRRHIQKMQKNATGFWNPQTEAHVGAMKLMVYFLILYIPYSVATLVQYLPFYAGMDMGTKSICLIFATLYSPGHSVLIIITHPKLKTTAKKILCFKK
Description: Determination of cellular calcium mobilization. Determination of the potential bitter taste-activating or blocking activity of BPH was carried out by measuring intracellular Ca^2+ mobilization using Fluo-4 NW calcium assay kit as previously described.^3 Stable transfected HEK293 cells expressing T2R4 and G-alpha 16/44 or HEK293T cells expressing only G-alpha 16/44 were used as experimental and negative control group, respectively. Around 1×10^5 cells/well plated in the 96-well BD-falcon biolux plate and then incubated at 37° C. in a CO2 incubator for 16 h. After incubation, the culture medium was substituted (for 40 min at 37° C. in the CO2 incubator followed by 30 min incubation at room temperature) with Fluo-4 NW dye solution, which contained lyophilized dye in 10 mL of assay buffer (1× Hanks' balanced salt solution, 20 mM HEPES) and 100 μL 2.5 mM probenecid added to prevent dye leakage from cytosol. Calcium mobilization was measured in terms of relative fluorescence units (RFUs) using a Flexstation-3 microplate reader (Molecular Devices, CA, USA) at 525 nm, following 494 nm excitation. […] The basal intracellular calcium levels were measured for the first 20 s followed by addition of appropriate concentration of ligands for another 120 s. To get the absolute RFUs, the basal RFU before adding the ligand, which was labeled minimum value (Min) was deducted from the maximum RFU (Max) obtained after stimulating with the ligand (absolute RFUs=Max−Min). […] Data were collected from two independent experiments, each done in triplicate.

[2] = molecular target: T2, T2R14 (Homo sapiens, UniProt Q9NYV8); assay: Peptides and agonist competition calcium mobilization assays on T2R14; assay type: cell-based; settings: for IC50: IC50 for T2R14 activated by diphenhydramine, diphenhydramine 0.5 mM, peptide 0.015 mM-1 mM, HEK293T cells stably expressing T2R14; for blocking of diphenhydramine-dependent T2R14 activation: competition calcium mobilization assay
T2 construct: expressed in transfected cells
T2 sequence (Q9NYV8 1-317): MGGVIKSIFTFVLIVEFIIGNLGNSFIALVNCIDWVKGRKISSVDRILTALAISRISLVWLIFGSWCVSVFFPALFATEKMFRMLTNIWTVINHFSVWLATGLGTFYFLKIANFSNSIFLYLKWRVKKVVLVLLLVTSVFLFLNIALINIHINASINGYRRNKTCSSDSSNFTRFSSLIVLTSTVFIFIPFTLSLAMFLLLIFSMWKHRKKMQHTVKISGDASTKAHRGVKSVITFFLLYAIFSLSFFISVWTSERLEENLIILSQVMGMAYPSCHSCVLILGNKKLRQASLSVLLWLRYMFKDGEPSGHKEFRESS
Description: FIG. 9. Peptides and agonist competition calcium mobilization assays on T2R14. HEK293T cells stably expressing T2R14 were treated with the agonist diphenhydramine (0.5 mM) and with increasing concentrations of Peptide 4 (ETSARHL) and Peptide 5 (AGDDAPRAVF) ranging from 0.015 mM-1 mM. Changes in intracellular calcium were measured (ΔRFUs), and IC50 values were calculated using GraphPad Prism 4.0. […] Data were collected from a minimum of two independent experiments carried out in triplicate.
To generalize the applicability of these peptides in blocking other T2Rs, we choose T2R14 as our next target.
Determination of cellular calcium mobilization. Determination of the potential bitter taste-activating or blocking activity of BPH was carried out by measuring intracellular Ca^2+ mobilization using Fluo-4 NW calcium assay kit as previously described.^3 Stable transfected HEK293 cells expressing T2R4 and G-alpha 16/44 or HEK293T cells expressing only G-alpha 16/44 were used as experimental and negative control group, respectively. Around 1×10^5 cells/well plated in the 96-well BD-falcon biolux plate and then incubated at 37° C. in a CO2 incubator for 16 h. After incubation, the culture medium was substituted (for 40 min at 37° C. in the CO2 incubator followed by 30 min incubation at room temperature) with Fluo-4 NW dye solution, which contained lyophilized dye in 10 mL of assay buffer (1× Hanks' balanced salt solution, 20 mM HEPES) and 100 μL 2.5 mM probenecid added to prevent dye leakage from cytosol. Calcium mobilization was measured in terms of relative fluorescence units (RFUs) using a Flexstation-3 microplate reader (Molecular Devices, CA, USA) at 525 nm, following 494 nm excitation. Based on the e-tongue data, BPH at 5 mg/mL, BCML at 59 nM and agonist quinine at 1 mM were used individually or in combination with peptides to determine activation of T2R4. BPH or BCML was then mixed with quinine (1 mM final concentration) to obtain 5 mg/mL or 59 nM, respectively and used to determine inactivation of T2R4. The basal intracellular calcium levels were measured for the first 20 s followed by addition of appropriate concentration of ligands for another 120 s. To get the absolute RFUs, the basal RFU before adding the ligand, which was labeled minimum value (Min) was deducted from the maximum RFU (Max) obtained after stimulating with the ligand (absolute RFUs=Max−Min). Next, the signals from the negative control group cells were deducted from the observed signal of experimental group cells to give ΔRFUs. Data were collected from two independent experiments, each done in triplicate. PRISM software version 4.03 (GraphPad Software, San Diego) was used for data analysis.

[3] = 10 mM quinine solution; cited from earlier work
[4] = Estimation of bitter scores by electronic-tongue (e-tongue); settings: 1 mM quinine mixed with 5 mg/mL hydrolysate or 59 nM BCML
Description: Estimation of bitter scores by electronic-tongue (e-tongue). Each BPH was dissolved in distilled water to give 0.5, 1.0, 2.5, 5.0, and 10.0 mg/mL concentrations followed by filtration first through a 0.45 μm filter disc and then a 0.2 μm filter. Bitter scores of filtered BPH solutions (20 mL) were evaluated using the Astree II E-tongue system (Alpha M.O.S., Toulouse, France). This system is a completely automated taste analyzer equipped with seven sensors, BD, EB, JA, JG, KA, OA, and JE, based on the ChemFET technology (Chemical modified Field Effect Transistor) to analyze liquid samples. Firstly, 0.01 M HCl was used to condition and calibrate sensors and the reference electrode repeatedly until stable signals were obtained for all seven sensors with minimal or no noise and drift. […] Thereafter, the PLS bitterness standard model was constructed using several bitter taste compounds with known bitter taste scores determined from human panelists, including 0.24 mM and 2.36 mM caffeine, 0.03 mM and 0.12 mM quinine, 0.44 mM and 0.88 mM prednisolone, as well as 3.31 mM and 19.85 mM paracetamol. […] The 5 mg/ml sample was determined as the maximum strength useful to evaluate BPH bitterness intensity and this concentration was subsequently used to obtain bitter scores. […]

[5] = molecular target: T1, T2R4; settings: known T2R4 bitter taste blocker, positive control; read-out: IC50 for quinine of known T2R4 bitter taste blocker; cited from earlier work

Compound: CC(C)[C@H](NC(=O)[C@H](C)NC(=O)[C@H](CCCNC(=N)N)NC(=O)[C@@H]1CCCN1C(=O)[C@H](C)NC(=O)[C@H](CC(=O)O)NC(=O)[C@H](CC(=O)O)NC(=O)CNC(=O)[C@H](C)N)C(=O)N[C@@H](Cc1ccccc1)C(=O)O [AGDDAPRAVF]
- IC50 [1]: 85 µM
- blocking of quinine-dependent calcium release ([1]; T2R4-expressing HEK 293T cells): less calcium mobilization; also recorded: most effective blocker; also recorded: suppressed quinine-dependent calcium release
- IC50 [2]: ~100 µM and 118 µM
- blocking of diphenhydramine-dependent T2R14 activation [2]: effective in blocking

Compound: AAMY: peptide AAMY identified from CHYMOTRYPSIN hydrolysate fraction CH-F4-5, chemically synthesized (synthesized bitter taste blocker)
- blocking of quinine-dependent calcium release ([1]; T2R4-expressing HEK 293T cells): less calcium mobilization; also recorded: suppressed quinine-dependent calcium release

Compound: Nc1ncnc2c1ncn2[C@H]1C[C@H](O)[C@@H](COP(=O)(O)OP(=O)(O)OP(=O)(O)O)O1 [dATP, 2-deoxyadenosine triphosphate]
- reduction in bitterness of quinine solution [3]: 60%

Compound: CC(C)C[C@H](NC(=O)[C@H](Cc1c[nH]cn1)NC(=O)[C@H](CCCNC(=N)N)NC(=O)[C@H](C)NC(=O)[C@H](CO)NC(=O)[C@@H](NC(=O)[C@@H](N)CCC(=O)O)[C@@H](C)O)C(=O)O [ETSARHL]
- blocking of quinine-dependent calcium release ([1]; T2R4-expressing HEK 293T cells): less calcium mobilization; also recorded: suppressed quinine-dependent calcium release; also recorded: most effective
- IC50 [2]: ~100 µM and 121 µM
- blocking of diphenhydramine-dependent T2R14 activation [2]: effective in blocking

Compound: NCCCC[C@@H](C(=O)O)N(CC(=O)O)CC(=O)O [BCML, Nα,Nα-bis(carboxymethyl)-I-lysine]
- suppression of quinine bitterness intensity (e-tongue) [4]: most decrease
- IC50 [5]: 59 nM

Compound: cytosine monophosphate [CMP]
- reduction in bitterness of quinine solution [3]: 40%

Compound: C=C[C@H]1C[N@@]2CC[C@H]1C[C@H]2[C@H](O)c1ccnc2ccc(OC)cc12 [Quinine, reference compound]
- calcium mobilization (ΔRFU), sample alone ([1]; T2R4-expressing HEK 293T cells, hydrolysates 5 mg/mL, quinine 1 mM, peptides 1 mM): highest activity

Compound: AAYM: peptide AAYM identified from CHYMOTRYPSIN hydrolysate fraction CH-F4-5, chemically synthesized (synthesized bitter taste blocker)
- blocking of quinine-dependent calcium release ([1]; T2R4-expressing HEK 293T cells): suppressed quinine-dependent calcium release
